Structures can show the parent of a compound that is named as a salt.
How the values were obtained:
[1] = molecular target: T1, 5-HT transporter (5-HT uptake) (Rattus norvegicus, UniProt P31652); test: 5-HT uptake inhibition in rat brain synaptosomes (medulla and pons); assay type: biochemical; conditions: % inhibition
T1 construct: from tissue; host or cells: rat brain synaptosomes (P2 fraction) from medulla and pons
Source text: (§1) b) Method For Determining Noradrenalin and 5-HT Uptake Inhibition
(§2) Synaptosomes from rat brain regions are freshly isolated for in vitro studies, as described in the publication “The isolation of nerve endings from brain” by E. G. Gray and V. P. Whittaker, J. Anatomy 96, pages 79-88, 1962. The corresponding literature description is hereby introduced as a reference and is deemed to be part of the disclosure.
(§3) The tissue (hypothalamus for the determination of noradrenalin uptake inhibition and medulla and pons for the determination of 5-HT uptake inhibition) is homogenised in ice-cooled 0.32 M sucrose (100 mg of tissue/1 ml) in a glass homogeniser with Teflon pestle using five complete up and down strokes at 840 revolutions/minute.
(§4) The homogenate is centrifuged at 4° C. for 10 minutes at 1000 g. After subsequent centrifugation at 17000 g for 55 minutes, the synaptosomes (P2 fraction) are obtained, which are resuspended in 0.32 M glucose (0.5 ml/100 mg of original weight).
(§5) The particular uptake is measured in a 96-well microtitre plate. The volume is 250 μl and the incubation proceeds at room temperature (approx. 20-25° C.) under an O2 atmosphere.
(§6) The incubation time is 7.5 minutes for [^3H]—NA and 5 minutes for [^3H]-5-HT. The 96 samples are then filtered through a Unifilter GF/B® microtitre plate (Packard) and washed with […] of incubated buffer using a “Brabdel MPXRI-96T Cell-Harvester”. The Unifilter GF/B plate is dried for 1 hour at 55° C. The plate is then sealed with a Back seal® (Packard) and 35 μl of scintillation fluid are added per well (Ultima Gold®, Packard). After sealing with a top seal® (Packard) and establishing an equilibrium (around 5 hours), radioactivity is determined in a “Trilux 1450 Microbeta” (Wallac).
(§7) The quantity of protein used in the above determination corresponds to the values known from the literature, as for example described in “Protein measurement with the folin phenol reagent”, Lowry et al., J. Biol. Chem., 193, 265-275, 1951. A detailed description of the method may additionally be found in the literature, for example in M.Ch. Frink, H.-H. Hennies, W. Engelberger, M. Haurand and B. Wilffert (1996) Arzneim.-Forsch./Drug Res. 46 (III), 11, 1029-1036. The disclosures of these two articles are hereby incorporated by reference.
(§8) The following characteristics were determined for the NA or 5-HT transporter: • NA uptake: Km=0.32±0.11 μM • 5HT uptake: Km=0.084±0.011 μM

[2] = molecular target: T2, NA transporter (NA uptake) (Rattus norvegicus, UniProt Q63380); test: Noradrenalin (NA) uptake inhibition in rat brain synaptosomes (hypothalamus); assay type: biochemical; conditions: 10 μM inhibition
T2 construct: from tissue; host or cells: rat brain synaptosomes (P2 fraction) from hypothalamus
Source text: as §1, §2, §3, §4, §5, §6, §7, §8

T1 sequence (P31652 whole entry): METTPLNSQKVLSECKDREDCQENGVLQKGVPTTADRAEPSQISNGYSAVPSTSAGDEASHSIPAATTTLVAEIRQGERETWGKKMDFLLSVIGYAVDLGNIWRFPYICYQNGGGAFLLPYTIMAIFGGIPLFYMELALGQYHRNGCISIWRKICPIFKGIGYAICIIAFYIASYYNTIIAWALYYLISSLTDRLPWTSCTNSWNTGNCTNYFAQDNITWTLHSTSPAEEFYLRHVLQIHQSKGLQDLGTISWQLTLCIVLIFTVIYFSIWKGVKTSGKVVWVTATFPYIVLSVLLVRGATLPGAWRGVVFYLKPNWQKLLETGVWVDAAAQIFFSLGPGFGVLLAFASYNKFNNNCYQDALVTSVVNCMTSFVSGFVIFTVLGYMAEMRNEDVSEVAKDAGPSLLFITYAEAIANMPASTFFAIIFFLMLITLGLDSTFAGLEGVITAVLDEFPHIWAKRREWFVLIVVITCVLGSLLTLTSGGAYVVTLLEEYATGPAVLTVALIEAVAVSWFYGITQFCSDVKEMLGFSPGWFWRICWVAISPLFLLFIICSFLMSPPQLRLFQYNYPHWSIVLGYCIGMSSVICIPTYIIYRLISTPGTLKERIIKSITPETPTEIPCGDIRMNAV
T2 sequence (Q63380 1-617): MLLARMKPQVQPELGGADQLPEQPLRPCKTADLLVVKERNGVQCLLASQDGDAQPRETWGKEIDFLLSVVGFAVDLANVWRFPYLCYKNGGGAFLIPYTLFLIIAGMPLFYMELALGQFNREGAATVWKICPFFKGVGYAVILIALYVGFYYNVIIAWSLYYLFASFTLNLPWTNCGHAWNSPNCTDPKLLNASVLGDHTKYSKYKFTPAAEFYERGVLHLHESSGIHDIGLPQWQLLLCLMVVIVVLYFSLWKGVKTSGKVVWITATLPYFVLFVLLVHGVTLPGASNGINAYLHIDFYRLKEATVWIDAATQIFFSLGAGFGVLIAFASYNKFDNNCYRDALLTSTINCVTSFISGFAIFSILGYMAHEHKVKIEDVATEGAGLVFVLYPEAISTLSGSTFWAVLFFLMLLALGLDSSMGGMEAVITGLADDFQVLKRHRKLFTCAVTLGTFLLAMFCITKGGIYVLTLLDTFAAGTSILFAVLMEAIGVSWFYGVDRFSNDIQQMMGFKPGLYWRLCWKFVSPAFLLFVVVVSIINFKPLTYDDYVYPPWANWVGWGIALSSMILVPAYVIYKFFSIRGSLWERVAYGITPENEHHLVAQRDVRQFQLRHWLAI

Row | Molecule | inhibition at 10 µM [1] [%] | inhibition at 10 µM [2] [%] | NA uptake inhibition [2] | 5HT uptake inhibition ([1]; 10 μM) [%]
1 | Benzyl-methyl-[1-methyl-5-(4-phenyl-piperidin-1-ylmethyl)-1H-pyrrol-2-ylmethyl]-amine [Example 10] |  |  | 53 | 
2 | CN(Cc1ccccc1)Cc1ccc(CN2CCC(Cc3ccccc3)CC2)n1C [Example 6, Benzyl-[5-(4-benzyl-piperidin-1-ylmethyl)-1-methyl-1H-pyrrol-2-ylmethyl]-methyl-amine] | 61 | 100 |  | 
3 | 4-[1-Methyl-5-(4-phenyl-piperidin-1-ylmethyl)-1H-pyrrol-2-ylmethyl]-morpholine [Example 3] |  |  | 71 | 59
4 | CN(Cc1ccccc1)Cc1ccc(CN2CCCCCC2)n1C [Example 8, (5-Azepan-1-ylmethyl-1-methyl-1H-pyrrol-2-ylmethyl)-benzyl-methyl-amine] |  | 62 |  | 
5 | CCN(CC)Cc1ccc(CN2CCCCC2)n1C [Example 1, Diethyl-(1-methyl-5-piperidin-1-ylmethyl-1H-pyrrol-2-ylmethyl)-amine dihydrochloride] | 34 |  |  | 
6 | CC1CCCCN1Cc1ccc(CN(C)Cc2ccccc2)n1C (stereo not drawn) [Example 9, Benzyl-methyl-[1-methyl-5-(2-methyl-piperidin-1-ylmethyl)-1H-pyrrol-2-ylmethyl]-amine] |  | 57 |  | 
7 | CC1CCN(Cc2ccc(CN3CCCCC3)n2C)CC1 [Example 2, 1-(1-Methyl-5-piperidin-1-ylmethyl-1H-pyrrol-2-ylmethyl)-4-methylpiperidine] | 72 |  |  | 

More lines, main results first:

Row | inhibition at 10 µM [1] [%] | inhibition at 10 µM [2] [%] | Molecule | NA uptake inhibition [2] | 5HT uptake inhibition ([1]; 10 μM) [%]
8 | 55 | 100 | Cn1c(CN2CCOCC2)ccc1CN1CCC(Cc2ccccc2)CC1 [Example 7, 4-[5-(4-Benzyl-piperidin-1-ylmethyl)-1-methyl-1H-pyrrol-2-ylmethyl]-morpholine] |  | 
9 | 48 | 77 | Cn1c(CN2CCCCC2)ccc1CN1CCN(c2ccccc2)CC1 [Example 4, 1-(1-Methyl-5-piperidin-1-ylmethyl-1H-pyrrol-2-ylmethyl)-4-phenyl-piperazine] |  | 
10 | 64 | 100 | Cn1c(CN2CCCCCC2)ccc1CN1CCC(Cc2ccccc2)CC1 [Example 5, 1-[5-(4-Benzyl-piperidin-1-ylmethyl)-1-methyl-1H-pyrrol-2-ylmethyl]-azepane] |  | 

Source: US20070135403A1, “Substituted 2,5-diaminomethyl-1H-pyrrole compounds” (Gruenenthal GmbH, priority 2004, published 2007)
